The NIST ThermoML archive (doi:10.1021/je900660x)
± gives the expanded uncertainty stated by the source.

Columns and labels:
[1] = for mass density / viscosity / thermal conductivity: 101.33 kPa, Liquid; for mass density: Vibrating tube method; for thermal conductivity: Hot wire method
[2] = molar heat capacity at constant pressure; settings: 101.33 kPa, Liquid, Large sample (1 g) DSC

CCCC[N+](C)(CCCC)CCCC.N[C@@H](CO)C(=O)[O-] [N,N-dibutyl-N-methylbutanaminium L-serinate]
Settings	Glass transition temperature, [1] [°C]	mass density, [1] [kg/m3]	molar heat capacity at constant pressure, [2] [J/K/mol]	thermal conductivity, [1] [W/m/K]	viscosity, [1] [mPa·s]
293.15 K	–	1018.8 ± 5.6	632.4 ± 64	–	–
298.15 K	–	1015.7 ± 5.6	634.8 ± 64	0.169 ± 0.01	10214 ± 3700
303.15 K	–	1012.6 ± 5.5	637.6 ± 64	0.168 ± 0.01	5845 ± 1900
313.15 K	–	1006.3 ± 5.5	643.6 ± 65	0.167 ± 0.01	2160 ± 550
323.15 K	–	999.9 ± 5.4	651 ± 66	0.166 ± 0.01	890.7 ± 170
333.15 K	–	993.9 ± 5.3	658 ± 66	0.165 ± 0.01	410.3 ± 59
343.15 K	–	987.9 ± 5.3	665 ± 67	0.164 ± 0.01	207.9 ± 21
353.15 K	–	981.9 ± 5.2	672.9 ± 68	0.163 ± 0.01	111.8 ± 6.8
363.15 K	–	975.6 ± 5.1	680.8 ± 69	–	64.3 ± 2
DTA	-50.59 ± 4	–	–	–	–

CCCC[P+](CCCC)(CCCC)CCCC.NCCS(=O)(=O)[O-] [tetrabutylphosphonium 2-aminoethanesulfonate]
Settings	Glass transition temperature, [1] [°C]	mass density, [1] [kg/m3]	molar heat capacity at constant pressure, [2] [J/K/mol]	viscosity, [1] [mPa·s]
293.15 K	–	1030.1 ± 5.7	987.7 ± 100	–
298.15 K	–	1026.8 ± 5.7	994.6 ± 100	1019 ± 210
303.15 K	–	1023.7 ± 5.7	1001.6 ± 100	712.6 ± 130
313.15 K	–	1017.6 ± 5.6	1015 ± 100	345.5 ± 46
323.15 K	–	1011.5 ± 5.5	1028.4 ± 100	186.2 ± 17
333.15 K	–	1005.3 ± 5.5	1042.6 ± 110	106.7 ± 6.2
343.15 K	–	999.2 ± 5.4	1057.6 ± 110	67.5 ± 2.2
353.15 K	–	993.3 ± 5.3	1073.7 ± 110	44.2 ± 1.3
363.15 K	–	987.3 ± 5.3	1088.6 ± 110	29.6 ± 0.9
DTA	-58.14 ± 4	–	–	–

CCCC[P+](CCCC)(CCCC)CCCC.N[C@@H](CS)C(=O)[O-] [tetrabutylphosphonium L-cysteinate]
Settings	Glass transition temperature, [1] [°C]	mass density, [1] [kg/m3]	molar heat capacity at constant pressure, [2] [J/K/mol]	thermal conductivity, [1] [W/m/K]	viscosity, [1] [mPa·s]
293.15 K	–	1037.2 ± 5.8	913.7 ± 92	–	–
298.15 K	–	1033.7 ± 5.8	919.8 ± 93	0.152 ± 0.01	2946 ± 810
303.15 K	–	1030 ± 5.7	926.6 ± 94	0.151 ± 0.01	1866 ± 460
313.15 K	–	1023.8 ± 5.7	942.5 ± 95	0.15 ± 0.01	832.7 ± 160
323.15 K	–	1017.8 ± 5.6	959.6 ± 97	0.149 ± 0.01	397.4 ± 57
333.15 K	–	1011.7 ± 5.5	977.1 ± 99	0.148 ± 0.01	208.4 ± 21
343.15 K	–	1005.4 ± 5.5	993.4 ± 100	0.147 ± 0.01	118.3 ± 7.6
353.15 K	–	999.1 ± 5.4	1008.2 ± 100	0.146 ± 0.01	72.5 ± 2.6
363.15 K	–	993 ± 5.3	1021.5 ± 100	–	46.6 ± 1.4
DTA	-29.68 ± 4	–	–	–	–

CCCC[P+](CCCC)(CCCC)CCCC.NCCCC[C@H](N)C(=O)[O-] [tetrabutylphosphonium L-lysinate]
Settings	Glass transition temperature, [1] [°C]	mass density, [1] [kg/m3]	molar heat capacity at constant pressure, [2] [J/K/mol]	thermal conductivity, [1] [W/m/K]	viscosity, [1] [mPa·s]
293.15 K	–	970.5 ± 5.1	987.3 ± 100	–	–
298.15 K	–	967.5 ± 5.1	997.4 ± 100	0.163 ± 0.01	741 ± 140
303.15 K	–	964.4 ± 5	1004.3 ± 100	0.163 ± 0.01	519.8 ± 83
313.15 K	–	958.4 ± 5	1021.3 ± 100	0.162 ± 0.01	268.7 ± 31
323.15 K	–	952.3 ± 4.9	1040.3 ± 110	0.161 ± 0.01	149.7 ± 12
333.15 K	–	946.2 ± 4.9	1060.1 ± 110	0.16 ± 0.01	90.4 ± 4.3
343.15 K	–	940.3 ± 4.8	1077.9 ± 110	0.159 ± 0.01	59.8 ± 1.7
353.15 K	–	934.4 ± 4.7	1096.5 ± 110	0.158 ± 0.01	39.7 ± 1.2
363.15 K	–	928.6 ± 4.7	1111.5 ± 110	–	27.5 ± 0.8
DTA	-66.7 ± 4	–	–	–	–

CCCC[P+](CCCC)(CCCC)CCCC.O=C([O-])[C@@H]1CCCN1 [tetrabutylphosphonium L-prolinate]
Settings	Glass transition temperature, [1] [°C]	mass density, [1] [kg/m3]	molar heat capacity at constant pressure, [2] [J/K/mol]	thermal conductivity, [1] [W/m/K]	viscosity, [1] [mPa·s]
293.15 K	–	995.7 ± 5.4	838 ± 85	–	–
298.15 K	–	992.5 ± 5.3	844.2 ± 85	0.154 ± 0.01	1695 ± 400
303.15 K	–	989.1 ± 5.3	850.4 ± 86	0.153 ± 0.01	1101 ± 230
313.15 K	–	983 ± 5.2	864.1 ± 87	0.152 ± 0.01	483.5 ± 75
323.15 K	–	976.9 ± 5.2	879.7 ± 89	0.151 ± 0.01	241.3 ± 26
333.15 K	–	970.8 ± 5.1	894.8 ± 90	0.15 ± 0.01	133.1 ± 9.5
343.15 K	–	964.6 ± 5	910.1 ± 92	0.149 ± 0.01	78.2 ± 3.1
353.15 K	–	958.6 ± 5	925.8 ± 94	0.148 ± 0.01	49.6 ± 1.5
363.15 K	–	952.6 ± 4.9	939.4 ± 95	–	32.2 ± 1
DTA	-65.87 ± 4	–	–	–	–

CCCC[P+](CCCC)(CCCC)CCCC.N[C@@H](CO)C(=O)[O-] [tetrabutylphosphonium L-serinate]
Settings	Glass transition temperature, [1] [°C]	mass density, [1] [kg/m3]	molar heat capacity at constant pressure, [2] [J/K/mol]	viscosity, [1] [mPa·s]
293.15 K	–	995.5 ± 5.3	742 ± 75	–
298.15 K	–	992.3 ± 5.3	748.5 ± 76	1143 ± 240
303.15 K	–	989.2 ± 5.3	755.1 ± 76	778.4 ± 150
313.15 K	–	983 ± 5.2	765.6 ± 77	395.4 ± 56
323.15 K	–	976.9 ± 5.2	776.5 ± 78	209.4 ± 21
333.15 K	–	970.8 ± 5.1	787.4 ± 80	122.9 ± 8.2
343.15 K	–	964.8 ± 5	797.6 ± 81	77.6 ± 3.1
353.15 K	–	958.9 ± 5	807.8 ± 82	49.7 ± 1.5
363.15 K	–	953 ± 4.9	814.7 ± 82	34.1 ± 1
DTA	-59.38 ± 4	–	–	–

CCCC[P+](CCCC)(CCCC)CCCC.C[C@@H](O)[C@H](N)C(=O)[O-] [tetrabutylphosphonium L-threoninate]
Settings	Glass transition temperature, [1] [°C]	mass density, [1] [kg/m3]	molar heat capacity at constant pressure, [2] [J/K/mol]	thermal conductivity, [1] [W/m/K]	viscosity, [1] [mPa·s]
293.15 K	–	983 ± 5.2	952.2 ± 96	–	–
298.15 K	–	979.9 ± 5.2	961.3 ± 97	0.156 ± 0.01	739 ± 140
303.15 K	–	976.9 ± 5.2	970.7 ± 98	0.155 ± 0.01	519.8 ± 83
313.15 K	–	970.7 ± 5.1	991.5 ± 100	0.154 ± 0.01	260.1 ± 30
323.15 K	–	964.6 ± 5	1012.6 ± 100	0.153 ± 0.01	143.2 ± 11
333.15 K	–	958.5 ± 5	1033.4 ± 100	0.152 ± 0.01	88.5 ± 4.1
343.15 K	–	952.5 ± 4.9	1055.7 ± 110	0.152 ± 0.01	53.9 ± 1.4
353.15 K	–	946.6 ± 4.9	1076.4 ± 110	0.151 ± 0.01	36.2 ± 1.1
363.15 K	–	940.7 ± 4.8	1097.2 ± 110	–	25.1 ± 0.8
DTA	-60.72 ± 4	–	–	–	–

CC(C)[C@H](N)C(=O)[O-].CCCC[P+](CCCC)(CCCC)CCCC [tetrabutylphosphonium L-valinate]
Settings	Glass transition temperature, [1] [°C]	mass density, [1] [kg/m3]	molar heat capacity at constant pressure, [2] [J/K/mol]	thermal conductivity, [1] [W/m/K]	viscosity, [1] [mPa·s]
293.15 K	–	–	743.7 ± 75	–	–
298.15 K	–	–	747.4 ± 76	–	–
303.15 K	–	–	751.6 ± 76	–	–
313.15 K	–	932.1 ± 4.7	761.3 ± 77	0.157 ± 0.01	216.9 ± 22
323.15 K	–	926 ± 4.7	771.5 ± 78	0.156 ± 0.01	120 ± 7.8
333.15 K	–	919.9 ± 4.6	781.2 ± 79	0.155 ± 0.01	70.8 ± 2.5
343.15 K	–	913.9 ± 4.5	791.4 ± 80	0.154 ± 0.01	44.8 ± 1.3
353.15 K	–	908 ± 4.5	801.1 ± 81	0.153 ± 0.01	29.6 ± 0.9
363.15 K	–	902.1 ± 4.4	810.9 ± 82	–	20.3 ± 0.6
DTA	-65.56 ± 4	–	–	–	–

Settings	Normal melting temperature [°C]
[1], Crystal, DTA	25.77 ± 0.5
